# Laboratory results as given in patent US10537534B1, “Compositions and methods for treating skin conditions using visible light and resorcinols” (Johnson & Johnson Consumer Inc., priority 2019, dated 2020).
# What was measured:
# C. acnes ATCC 6919 [1] = assay: In vitro reduction of C. acnes by 4-hexylresorcinol with or without 440 nm blue light, colony count; assay type: cell-based, Cutibacterium acnes; details: for Ave. Log Reduction ± S.D., arithmetic sum (expected additive): sum of light only and 0.002% 4-hexylresorcinol only
# Procedure: (§1) A standard C. acnes ATCC 6919 culture is grown in Reinforced Clostridial Media (RCM) (Remel, Lenexa, Kans.). A suspension of C. acnes is adjusted to OD600=1.0 using a Spectromax M5 spectrophotometer (Molecular Devices, San Jose, Calif.) to yield a concentration of 10^8 cfu/ml. A 1:100 dilution of the standardized suspension is created to yield an inoculum concentration of 10^6 cfu/ml. Therefore, 100μl of inoculum into 100 μl of test sample yields 5×10^5 cfu/ml C. acnes within a 96-well experiment plate.
# The culture is incubated in anaerobic chamber (<10 ppm O^2, 2.5-5% H^2, balance N^2 at 35±2° C.), in the dark, on an orbital shaker at 80 RPM. For test treatments including light, the prepared C. acnes culture is exposed for two, 60-minute light cycles with a 60-minute hold time between. Each light cycle is with blue light at wavelength 440 nm and 22±2 mW/cm^2 intensity. After treatments, the sample is incubated overnight (16±2 hours) in an anaerobic chamber. The sample is then recovered onto agar and incubated 5-7 days until clear colonies are visible. After growth, the remaining viable C. acnes colonies are counted; converted to cfu/ml and the log 10 reduction in number of cells is calculated (log 10 reduction=no light control sample−test sample).
# A C. acnes inoculum was prepared as set forth above and in the same manner as Example 1. The solution was stored at 4° C. until time of use. The stock solution was added to RCM to produce a final concentration of 0.01% (v/v) and inoculated with 0.1 mL of the C. acnes suspension to yield 10^6 cfu/ml. The prepared culture in RCM+ALA was incubated by shaking at 80 rpm, in the dark (foil covered), and in an anaerobic chamber at 35±2° C. for 24 hours.
# A 0.02% (w/v) of n-4-hexylresorcinol (Alfa Aesar, Tewksbury, Mass.) was prepared in RCM. The sample stock solution was mixed as 1:10 (v/v) with 24-hour C. acnes culture in RCM+ALA. Organism control culture was diluted 1:10 (v/v) with RCM for equivalent organism concentration.
# The in vitro evaluation was conducted as follows. The prepared C. acnes culture (grown with ALA) was mixed with the test sample as described above, added to 6-well plates and then exposed to two 60-minute, 440 nm blue light (22 mW) exposures, separated by one 60-minute rest period in the dark. Two samples were tested: 4-hexylresorcinol at 0.002% (v/v) and 24-hour C. acnes culture in RCM+ALA alone. A duplicate, 6-well plate was kept un-exposed to light as a control. All plates were incubated anaerobically, overnight, in the dark (foil covered), and in an anaerobic chamber at 35±2° C.
# After 24-hour incubation, samples were serial diluted and plated onto Reinforced Clostridial Agar (Remel, Lenexa, Kans.). Agar plates were incubated anaerobically at 35±2° C. for 5-7 days until bacterial colonies were well-established. Then, colonies were counted and colony forming units (CFU) per ml were calculated. Statistically significant differences are defined by unshared letter groupings.
# C. acnes ATCC 6919 [2] = assay: Minimum inhibitory concentration (MIC) of 4-hexyl resorcinol against C. acnes growth, serial dilution in 96-well plate, visible turbidity; assay type: cell-based, Cutibacterium acnes; design: key: A “+” indicates growth; a “−” indicates no growth; details: anaerobic, 3 days, 35° C.
# Procedure: as §1
# The minimum inhibitory concentration (MIC) of 4-hexyl resorcinol was determined to investigate its ability to inhibit the growth of C. acnes. All media and diluents were sterile. Aseptic techniques were used during study execution.
# A C. acnes inoculum was prepared as set forth above.
# A 0.1% (w/w) stock of 4-hexylresorcinol (Alfa Aesar, Tewksbury, Mass.) was made in RCM. Serial 1:2 dilutions were made in RCM across successive wells of a 96-well plate (sterile, u-bottom, untreated culture plate from Greiner Bio-one, Monroe, N.C.) to yield 10 test concentrations. After inoculation with equal volumes of C. acnes suspension, the test concentrations ranged from 0.05% through […] (v/v). Sterile RCM and 5×10^5 cfu/ml C. acnes in RCM were set up as a negative growth control and a positive growth control, respectively. Sterile 0.1% (w/w) 4-hexylresorcinol in RCM was set up as a turbidity control.
# The 96-well plate was incubated anaerobically for 3 days at 35° C. The presence of visible turbidity within a challenged well was indicative of growth, while a clear well indicated no growth. The lowest concentration that inhibited C. acnes growth was determined to be the MIC. Negative growth control (not turbid) and positive growth control (turbid) results were as expected.
compound,measurement,setting,value
CCCCCCc1ccc(O)cc1O [4-hexylresorcinol],Ave. Log Reduction ± S.D.,"C. acnes ATCC 6919 [1]; 0.002% (v/v) 4-hexylresorcinol plus 440 nm blue light (22 mW), two 60-minute exposures, simultaneous",4.84 log
same,Ave. Log Reduction ± S.D.,"C. acnes ATCC 6919 [1]; 0.002% (v/v) 4-hexylresorcinol plus 440 nm blue light (22 mW), two 60-minute exposures, simultaneous, listed as HR",4.84 ± 0.40 log
same,Ave. Log Reduction ± S.D.,"C. acnes ATCC 6919 [1]; 0.002% (v/v) 4-hexylresorcinol treatment only, no light",1.00 log
same,Ave. Log Reduction ± S.D.,"C. acnes ATCC 6919 [1]; 0.002% (v/v) 4-hexylresorcinol treatment only, no light, listed as HR",1.00 ± 0.55 log
same,Benefit from the synergistic combination over expected additive reduction,C. acnes ATCC 6919 [1]; light plus 0.002% 4-hexylresorcinol versus arithmetic sum,100 fold
same,"Ave. Log Reduction ± S.D., arithmetic sum (expected additive)",C. acnes ATCC 6919 [1],2.83 log
same,"Ave. Log Reduction ± S.D., arithmetic sum (expected additive)",C. acnes ATCC 6919 [1]; listed as HR,2.83 ± 1.08 log
same,Growth,C. acnes ATCC 6919 [2]; concentration 1.25E^−2 % v/v,−
same,Growth,C. acnes ATCC 6919 [2]; concentration 1.56E^−3 % v/v,−
same,Growth,C. acnes ATCC 6919 [2]; concentration 1.95E^−4 % v/v,+
same,Growth,C. acnes ATCC 6919 [2]; concentration 2.50E^−2 % v/v,−
same,Growth,C. acnes ATCC 6919 [2]; concentration 3.13E^−3 % v/v,−
same,Growth,C. acnes ATCC 6919 [2]; concentration 3.91E^−4 % v/v,+
same,Growth,C. acnes ATCC 6919 [2]; concentration 5.0E^−2 % v/v,−
same,Growth,C. acnes ATCC 6919 [2]; concentration 6.25E^−3 % v/v,−
same,Growth,C. acnes ATCC 6919 [2]; concentration 7.81E^−4 % v/v,+
same,Growth,C. acnes ATCC 6919 [2]; concentration 9.77E^−5 % v/v,+
